Data on 34 molecules can be found in patent US6670364B2, “Antagonists of MCP-1 function and methods of use thereof” (Telik, Inc., priority 2001, dated 2003).

Structures can show the parent of a compound that is named as a salt.

The first assay deals with ICR male mice. As to the kind of experiment: Thioglycollate-induced inflammation model (Example 18). It is filed as in vivo. The settings on record: 2 mg/kg s.c., repeated immediately after broth injection and 3 h later; peritoneal cavity at 72 h; mouse. The procedure: 3% Brewer's thioglycollate broth (Difco, Detroit, Mich.) was injected into the peritoneal cavity of ICR male mice, followed by subcutaneous administration of the test compound. The same dose of test compound was again administered immediately after the broth injection and 3 h later. After 72 h, the number of total elicited cells and MOMA2-positive cells in the peritoneal cavity was analyzed using an EPICS XL Beckman Coulter.
`Cc1nn(C)c2ncc(C(=O)NC(=O)Nc3ccc(C(=O)N4CCN(C)CC4)c(Cl)c3)c(N3CCN(C)CC3)c12` [Compound 97]: the “MOMA2-positive Cells (× 10^6)” value is given as 4.1 ± 0.3 × 10^6 and the “Total Cells (× 10^6)” value is on record as 6.4 ± 0.6 × 10^6.

Still in this assay, the particulars now being: 10 mg/kg s.c., repeated immediately after broth injection and 3 h later; peritoneal cavity at 72 h; mouse.
Turning to `Cc1nn(C)c2nc(N(C)CCN(C)C)c(C(=O)NC(=O)Nc3ccc(F)c(C(F)(F)F)c3)cc12` [Compound 116, (6-{[2-(Dimethylamino)ethyl]methylamino}-1,3-dimethylpyrazolo[5,4-b]-pyridin-5-yl)-N-({[4-fluoro-3-(trifluoromethyl)phenyl]amino}carbonyl)-carboxamide hydrochloride], the “MOMA2-positive Cells (× 10^6)” value is given as 3.0 ± 0.8 × 10^6 and the “Total Cells (× 10^6)” value was 4.2 ± 1.1 × 10^6.

A further assay deals with hMCP-1 (Homo sapiens, UniProt P13500). As to the kind of experiment: Inhibition of MCP-1-induced chemotaxis (48-well chamber, Example 21). Type of assay: cell-based. Further details: purchased PeproTech. The settings on record: THP-1 cells, 2.5 nM hMCP-1, 48-well chamber, 2 hr. Here is the method: A 48-well microchemotaxis chamber with a 5 μm-pore size, PVP-coated polycarbonate filter membrane (Neuro Probe Inc., Cabin John, Md.) was used for testing. Compounds were prepared as 10 mM stock solution in DMSO. THP-1 cells were washed with RPMI 1640 medium supplemented with 0.5% BSA and 25 mM HEPES, pH 7.4, and suspended at a density of 4×10^6 cells/mL in the same medium. A 150 μL aliquot of this suspension was treated with an equal volume of test compound solution and the mixture incubated at 37° C. for 15 min. The lower chamber was loaded with 26 μL of a 2.5 nM solution of hMCP-1 (PeproTech) in medium. The filter membrane was placed over the lower chamber, followed by a silicon rubber gasket and the upper chamber. A 50 μL aliquot of the THP-1 cell suspension containing the test compound was added to the upper chamber and the assembly incubated in a 5% CO2 atmosphere at 37+ C. for 2 hr. The chamber was then disassembled and the cells remaining on the upper surface of the filter were scrapped off with a rubber scrapper. The filter was fixed with methanol, stained with Diff-Quik solution, and mounted on a slide glass. The cells that had migrated across the filter onto the lower surface were then counted by microscopic observation.
hMCP-1, sequence (P13500 24-99): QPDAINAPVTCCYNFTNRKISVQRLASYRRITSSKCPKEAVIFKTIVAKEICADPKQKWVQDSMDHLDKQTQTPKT
By IC50 is commonly meant the concentration at which inhibition is half-maximal. For `Cc1nn(C)c2ncc(C(=O)NC(=O)Nc3ccc(F)c(C(F)(F)F)c3)c(O)c12` [Compound 43, N-({[4-fluoro-3-(trifluoromethyl)phenyl]amino}carbonyl)(4-hydroxy-1,3-dimethylpyrazolo[5,4-b]pyridin-5-yl)carboxamide], the IC50 turned out to be 7.7 µM. Take `Cc1nn(C)c2ncc(C(=O)NC(=O)Nc3ccc(F)c(C(F)(F)F)c3)c(N(C)C)c12` [Compound 44, [4-(Dimethylamino)-1,3-dimethylpyrazolo[5,4-b]pyridin-5-yl]-N-({[4-fluoro-3-(trifluoromethyl)phenyl]amino}carbonyl)carboxamide]: 8.2 µM corresponded to half-maximal inhibition (IC50). This IC50 and that of the molecule before are within 1.5-fold of each other. The same measure, in the same setting: under `Cc1nn(C)c2ncc(C(=O)NC(=O)Nc3ccc(F)c(C(F)(F)F)c3)c(NCCN(C)C)c12` [Compound 46, (4-{[2-(Dimethylamino)ethyl]amino}-1,3-dimethylpyrazolo[5,4-b]pyridin-5-yl)-N-({[4-fluoro-3-(trifluoromethyl)phenyl]amino}carbonyl)carboxamide hydrochloride] stands 2 µM; under `Cc1nn(C)c2ncc(C(=O)NC(=O)Nc3ccc(F)c(C(F)(F)F)c3)c(N(CCO)CCO)c12` [Compound 51, {4-[Bis(2-hydroxyethyl)amino]-1,3-dimethylpyrazolo[5,4-b]pyridin-5-yl}-N-({[4-fluoro-3-(trifluoromethyl)phenyl]amino}carbonyl)carboxamide], 1.6 µM. Molecule `Cc1nn(C)c2ncc(C(=O)NC(=O)Nc3ccc(F)c(C(F)(F)F)c3)c(NCCC34CCCN3CCC4)c12` [Compound 60, {1,3-Dimethyl-4-[(2-perhydropyrrolizin-7a-ylethyl)amino]pyrazolo[5,4-b]pyridin-5-yl}-N-({[4-fluoro-3-(trifluoromethyl)phenyl]amino}carbonyl)carboxamide hydrochloride] yielded an IC50 of 1.2 µM. Still for that read-out and setting: the value for `Cc1nn(C)c2ncc(C(=O)NC(=O)Nc3ccc(F)c(C(F)(F)F)c3)c(NCc3ccccc3)c12` [Compound 61] was 20 µM; that for `Cc1nn(C)c2ncc(C(=O)NC(=O)Nc3ccc(F)c(C(F)(F)F)c3)c(N3CCCCC3)c12` [Compound 64, (1,3-Dimethyl-4-piperidylpyrazolo[5,4-b]pyridin-5-yl)-N-({[4-fluoro-3-(trifluoromethyl)-phenyl]amino}carbonyl)carboxamide] was 2 µM; that for `Cc1nn(C)c2ncc(C(=O)NC(=O)Nc3ccc(F)c(C(F)(F)F)c3)c(N3CCOCC3)c12` [Compound 65, (1,3-Dimethyl-4-morpholin-4-ylpyrazolo[5,4-b]pyridin-5-yl)-N-({[4-fluoro 3-(trifluoromethyl)phenyl]amino}carbonyl)carboxamide] was 10 µM.

`Cc1nn(C)c2ncc(C(=O)NC(=O)Nc3ccc(F)c(C(F)(F)F)c3)c(N3CCNCC3)c12` [Compound 67] registered a half-inhibitory concentration (IC50) of 1.8 µM.

In turn, `Cc1nn(C)c2ncc(C(=O)NC(=O)Nc3cccc(Cl)c3)c(N3CCN(C)CC3)c12` [Compound 68] yielded an IC50 of 4 µM. This IC50 is about 2.2-fold higher than that of the molecule before.

For `Cc1nn(C)c2ncc(C(=O)NC(=O)Nc3cccc(Br)c3)c(N3CCN(C)CC3)c12` [Compound 69], it took 4 µM to reach half-maximal inhibition (IC50). This lies in the single-digit micromolar range. `Cc1nn(C)c2ncc(C(=O)NC(=O)Nc3ccc(Cl)cc3)c(N3CCN(C)CC3)c12` [Compound 70] had an IC50 of 4 µM. This lies in the single-digit micromolar range. `Cc1nn(C)c2ncc(C(=O)NC(=O)Nc3ccc(Cl)c(Cl)c3)c(N3CCN(C)CC3)c12` [Compound 71]: the IC50 was found to be 4 µM. On to `Cc1nn(C)c2ncc(C(=O)NC(=O)Nc3cccc(C(F)(F)F)c3)c(N3CCN(C)CC3)c12` [Compound 72], for which the midpoint of inhibition, the IC50, lay at 3.6 µM. For the molecule `Cc1nn(C)c2ncc(C(=O)NC(=O)Nc3cccc(C(F)(F)F)c3)c(N3CCN(C)CC3)c12` [Compound 73], the IC50 is 1.7 µM.

Regarding `Cc1nn(C)c2ncc(C(=O)NC(=O)Nc3cccc(C(C)C)c3)c(N3CCN(C)CC3)c12` [Compound 74], the IC50 was 4 µM. As for `Cc1nn(C)c2ncc(C(=O)NC(=O)Nc3cccc(OC(C)C)c3)c(N3CCN(C)CC3)c12` [Compound 75], the 50% inhibitory concentration (IC50) worked out at 0.7 µM. On to `Cc1nn(C)c2ncc(C(=O)NC(=O)Nc3ccc(C(=O)O)c(OC(C)C)c3)c(N3CCN(C)CC3)c12` [Compound 76], for which 4 µM corresponded to half-maximal inhibition (IC50). Against the preceding molecule, the IC50 is about 5.7-fold higher. On the same count and under the same terms, under `Cc1nn(C)c2ncc(C(=O)NC(=O)Nc3cccc(OC(F)(F)F)c3)c(N3CCN(C)CC3)c12` [Compound 77] stands 0.7 µM; under `Cc1nn(C)c2ncc(C(=O)NC(=O)Nc3cccc(-c4nccs4)c3)c(N3CCN(C)CC3)c12` [Compound 78], 0.9 µM; under `Cc1nn(C)c2ncc(C(=O)NC(=O)Nc3cccc(-c4ccccc4)c3)c(N3CCN(C)CC3)c12` [Compound 80], 4 µM.

Molecule `Cc1ccc(NC(=O)NC(=O)c2cnc3c(c(C)nn3C)c2N2CCN(C)CC2)cc1C(F)(F)F` [Compound 83] registered a half-maximal inhibitory concentration (IC50) of 4 µM. That is a single-digit micromolar value. On the same count and under the same terms, under `Cc1nn(C)c2ncc(C(=O)NC(=O)Nc3ccc(O)c(C(F)(F)F)c3)c(N3CCN(C)CC3)c12` [Compound 87] stands 4 µM; under `Cc1nn(C)c2ncc(C(=O)NC(=O)Nc3cc(O)cc(C(F)(F)F)c3)c(N3CCN(C)CC3)c12` [Compound 89], 4 µM. Consider `Cc1nn(C)c2ncc(C(=O)NC(=O)Nc3cc(C(F)(F)F)cc(C(F)(F)F)c3)c(N3CCN(C)CC3)c12` [Compound 91], for which the IC50 is 3 µM. `Cc1nn(C)c2ncc(C(=O)NC(=O)Nc3ccc(Cl)c(C(=O)OC(C)C)c3)c(N3CCN(C)CC3)c12` [Compound 92] gave a 50% inhibitory concentration (IC50) of 2.1 µM. This IC50 and that of the molecule before are within 1.5-fold of each other. Same read-out and setting: under `Cc1nn(C)c2ncc(C(=O)NC(=O)Nc3ccc(C(=O)N4CCOCC4)c(Cl)c3)c(N3CCN(C)CC3)c12` [Compound 94] stands 1.2 µM; under `Cc1nn(C)c2ncc(C(=O)NC(=O)Nc3ccc(Cl)c(C(=O)N4CCOCC4)c3)c(N3CCN(C)CC3)c12` [Compound 95], 1.9 µM.

For the molecule `Cc1nn(C)c2ncc(C(=O)NC(=O)Nc3ccc(C(=O)N4CCN(C)CC4)c(Cl)c3)c(N3CCN(C)CC3)c12` [Compound 97], the IC50 was determined as 1.1 µM. Still for that read-out and setting: under `Cc1nn(C)c2ncc(C(=O)NC(=O)Nc3ccc(F)c(C(F)(F)F)c3)c(N3CCN(c4ccccc4)CC3)c12` [Compound 103, [1,3-Dimethyl-4-(4-phenylpiperazinyl)pyrazolo[5,4-b]pyridin-5-yl]-N-({[4-fluoro-3-(trifluoromethyl)phenyl]amino}carbonyl)carboxamide] stands 2 µM.

The molecule `Cc1nn(C)c2ncc(C(=O)NC(=O)Nc3ccc(F)c(C(F)(F)F)c3)c(-[n+]3ccc(N)cc3)c12` [Compound 106, 4-Amino-1-{5-[N-({[4-fluoro-3-(trifluoromethyl)phenyl]amino}carbonyl)carbamoyl]-1,3-dimethylpyrazolo[5,4-b]pyridin-4-yl}pyridinium chloride] gave an IC50 of 0.4 µM. This IC50 is about 5-fold lower than that of the molecule before.

As for `Cc1nn(C)c2ncc(C(=O)NC(=O)Nc3ccc(F)c(C(F)(F)F)c3)c(N3CCCN(C)CC3)c12` [Compound 108, [1,3-Dimethyl-4-(4-methyl(1,4-diazaperhydroepinyl))pyrazolo[5,4-b]pyridin-5-yl]-N-({[4-fluoro-3-(trifluoromethyl)phenyl]amino}carbonyl)carboxamide hydrochloride], the midpoint of inhibition, the IC50, lay at 2 µM.

Molecule “[4-(4-Ethylpiperazinyl)-1,3-dimethylpyrazolo[5,4-b]pyridin-5-yl]-N-({[4-fluoro-3-(trifluoromethyl)phenyl]amino}carbonyl)carboxamide hydrochloride [Compound 100]” registered an IC50 of 0.38 µM. This IC50 is about 5.3-fold lower than that of the molecule before.
